Data reported in article PMC7013301 (Evidence-based Complementary and Alternative Medicine : eCAM, 2020).
Read-outs that look alike come from different tables or passages of the source. No end group written: not given here.

Assays:
[1] = biological target: T1, human CRF2 receptor (Homo sapiens, UniProt Q13324); test: Antagonistic activity against CRF2 receptor, CRF-induced cAMP production (HTRF) in HEK-293 cells; format: cell-based
T1 construct: host or cells: HEK-293
T1 sequence (Q13324 1-411): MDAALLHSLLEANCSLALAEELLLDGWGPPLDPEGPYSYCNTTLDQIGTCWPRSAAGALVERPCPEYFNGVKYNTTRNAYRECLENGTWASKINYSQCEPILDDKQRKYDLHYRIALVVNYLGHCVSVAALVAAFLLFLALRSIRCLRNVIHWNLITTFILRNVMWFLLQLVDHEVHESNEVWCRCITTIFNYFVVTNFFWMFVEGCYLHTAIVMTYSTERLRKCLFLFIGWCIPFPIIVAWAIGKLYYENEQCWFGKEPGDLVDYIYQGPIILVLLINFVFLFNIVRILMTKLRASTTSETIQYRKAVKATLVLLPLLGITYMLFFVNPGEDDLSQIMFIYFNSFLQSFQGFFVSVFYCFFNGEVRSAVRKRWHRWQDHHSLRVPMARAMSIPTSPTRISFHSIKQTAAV
Method: (§1) Assays were performed at Eurofins Discovery (MO, USA). Briefly, evaluation of the inhibitory activities against human recombinant acetylcholinesterase (AChE) expressed in HEK-293 cells was performed by preincubation with test compound and/or vehicle with 41ng/ml of enzyme for 15 minutes at 25°C in phosphate buffer pH 7.4. After 20 minute incubation with 0.7 mM acetylthiocholine iodide and 0.5 mM 5,5-dithiobis-2-nitrobenzoic acid, the spectrophotometric absorbance was read at 405 nm (Catalog No. 104010). Evaluation of the antagonistic activities against human CRF2 receptor transfected in HEK-293 cells was performed by measuring the effects of the test compounds on cAMP production induced by 100 nM human CRF incubated for 30 minutes at room temperature via the HTRF detection method (Catalog No. 2086). Evaluation of the antagonistic activities against human dopamine D2, D3, and neuropeptide Y (NPY) Y2 receptors expressed in CHO-K1 cells, CHO-K1, and KAN-TS cells, respectively, was performed by preincubation of the test compounds and/or vehicle with the membrane proteins (0.1, 0.04, 0.04 mg/ml, respectively) and GDP (10, 1, 0.001 mM) in 20 mM HEPES, pH 7.4, 100 mM NaCl, 10 mM MgCl2, 1 mM DTT, and 1 mM EDTA for 20 minutes at 25°C, and SPA beads are then added for another 60 minutes at 30°C. The reaction was initiated by 0.3 nM [^35S]GTPγS for an additional incubation period (15, 30, 30 minute). Inhibition on increase of [^35S]GTPS binding response induced by dopamine (10, 0.03 mM) or 3 nM human NPY was assessed as receptor antagonist activities of test compounds (Catalog No. 310200, 310400, 332520). Evaluation of the antagonistic activities of shogaol and gingerol against human […] NPY Y2 receptor expressed in RBL cells was performed by measuring the effects of the test compounds on calcium flux induced by 15 nM human NPY (Catalog No. 4287). A concentration-response curve was generated to calculate IC50 values.

[2] = biological target: T2, human dopamine D2 receptor (Homo sapiens, UniProt P14416); test: Antagonistic activity against dopamine D2 receptor, [35S]GTPγS binding, CHO-K1 membranes; format: biochemical
T2 construct: host or cells: CHO-K1 (membranes)
Method: as §1

[3] = biological target: T3, human dopamine D3 receptor (Homo sapiens, UniProt P35462); test: Antagonistic activity against dopamine D3 receptor, [35S]GTPγS binding, CHO-K1 membranes; format: biochemical
T3 construct: host or cells: CHO-K1 (membranes)
Method: as §1

[4] = biological target: T4, human neuropeptide Y (NPY) Y2 receptor (Homo sapiens, UniProt P49146); test: Antagonistic activity against NPY Y2 receptor, [35S]GTPγS binding, KAN-TS membranes; format: biochemical
T4 construct: host or cells: KAN-TS (membranes)
T4 sequence (P49146 1-381): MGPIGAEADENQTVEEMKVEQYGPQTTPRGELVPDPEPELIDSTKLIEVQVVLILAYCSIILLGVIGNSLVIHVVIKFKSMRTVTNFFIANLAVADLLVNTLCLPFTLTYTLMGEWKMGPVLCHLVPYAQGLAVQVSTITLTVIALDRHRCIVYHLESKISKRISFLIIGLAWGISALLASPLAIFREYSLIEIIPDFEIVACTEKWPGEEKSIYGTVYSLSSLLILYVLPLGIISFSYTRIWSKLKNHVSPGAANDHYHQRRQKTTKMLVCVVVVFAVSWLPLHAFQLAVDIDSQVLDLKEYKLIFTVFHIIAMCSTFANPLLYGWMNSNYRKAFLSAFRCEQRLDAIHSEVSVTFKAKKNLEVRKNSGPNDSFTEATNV
Method: as §1

[5] = tested on: AChE; details: cited from earlier work
[6] = cited from earlier work
[7] = biological target: T5, human recombinant acetylcholinesterase (AChE) (Homo sapiens, UniProt P22303); test: Inhibition of recombinant acetylcholinesterase, spectrophotometric (acetylthiocholine/DTNB); format: biochemical; details: pH 7.4, 25°C
T5 construct: purchased Eurofins Discovery 104010; host or cells: HEK-293
Method: as §1

[8] = biological target: T6, human NPY Y2 receptor (Homo sapiens, UniProt P49146); test: Antagonistic activity of shogaol and gingerol against NPY Y2 receptor, calcium flux in RBL cells; format: cell-based; details: calcium flux induced by 15 nM human NPY
T6 construct: host or cells: RBL
T6 sequence (P49146 1-381): T4 sequence (P49146 1-381)
Method: as §1

[9] = tested on: C57BL/6 mice; test: CRF-induced delayed gastric emptying of solid meal in mice; format: in vivo; details: CRF ICV 0.3 and 1.0 μg/mouse, vs vehicle
Method: Seven-week-old male C57BL/6 mice (weighing 20–27 g) were purchased from Charles River Laboratories (Tokyo, Japan). Five mice were housed in a plastic cage (230 × 310 × 155 mm) with bedding materials and acclimated for a week in a controlled environment (20–26°C, 30–70% humidity) under a 12-hour light/dark cycle with free access to standard chow and water. This study was approved by and conducted according to the guidelines of the experimental animal ethics committees of Tsumura & Co. (Tokyo, Japan; Permit No. 14-094-1).
BGH was manufactured by Tsumura & Co., complying with the quality standards authorized in the Japanese Pharmacopoeia, which was published under the authority of the Japanese Ministry of Health, Labour and Welfare. […]
Solid gastric emptying was evaluated using a test meal containing 20 g of ground meal and 40.61 mL of distilled water. […] The gastric emptying of solid meal was calculated using the equation below: […]

[10] = inhibition of dopamine-induced [35S]GTPγS binding, read-out: IC50 value D2
[11] = inhibition of dopamine-induced [35S]GTPγS binding, read-out: IC50 value D3
[12] = reported value from previous study (*) ref 23
[13] = cAMP production induced by 100 nM human CRF, HEK-293, read-out: IC50 value CRF2

T3 sequence (P35462 whole entry): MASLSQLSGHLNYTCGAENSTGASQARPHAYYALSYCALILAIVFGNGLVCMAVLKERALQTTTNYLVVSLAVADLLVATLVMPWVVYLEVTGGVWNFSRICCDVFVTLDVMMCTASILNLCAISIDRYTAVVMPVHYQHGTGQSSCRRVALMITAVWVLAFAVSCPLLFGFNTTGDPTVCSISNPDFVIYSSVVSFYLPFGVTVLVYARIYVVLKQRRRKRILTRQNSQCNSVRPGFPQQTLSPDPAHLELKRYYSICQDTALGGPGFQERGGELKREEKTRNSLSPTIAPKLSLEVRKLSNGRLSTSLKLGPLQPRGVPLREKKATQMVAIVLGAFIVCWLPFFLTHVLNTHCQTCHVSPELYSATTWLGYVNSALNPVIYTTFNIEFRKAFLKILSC
T2 sequence (P14416 whole entry): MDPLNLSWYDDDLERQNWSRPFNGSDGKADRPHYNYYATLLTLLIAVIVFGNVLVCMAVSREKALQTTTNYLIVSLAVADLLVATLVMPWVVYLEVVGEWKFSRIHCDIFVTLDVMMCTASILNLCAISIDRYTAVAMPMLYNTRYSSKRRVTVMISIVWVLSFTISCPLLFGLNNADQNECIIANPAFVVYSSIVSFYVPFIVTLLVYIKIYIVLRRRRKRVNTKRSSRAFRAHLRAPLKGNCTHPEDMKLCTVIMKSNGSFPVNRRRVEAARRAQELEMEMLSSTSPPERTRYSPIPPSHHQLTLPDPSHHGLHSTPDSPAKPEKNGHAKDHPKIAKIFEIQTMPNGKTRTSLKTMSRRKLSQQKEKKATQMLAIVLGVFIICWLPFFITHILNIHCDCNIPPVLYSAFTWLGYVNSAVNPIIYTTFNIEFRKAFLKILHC
T5 sequence (P22303 32-614): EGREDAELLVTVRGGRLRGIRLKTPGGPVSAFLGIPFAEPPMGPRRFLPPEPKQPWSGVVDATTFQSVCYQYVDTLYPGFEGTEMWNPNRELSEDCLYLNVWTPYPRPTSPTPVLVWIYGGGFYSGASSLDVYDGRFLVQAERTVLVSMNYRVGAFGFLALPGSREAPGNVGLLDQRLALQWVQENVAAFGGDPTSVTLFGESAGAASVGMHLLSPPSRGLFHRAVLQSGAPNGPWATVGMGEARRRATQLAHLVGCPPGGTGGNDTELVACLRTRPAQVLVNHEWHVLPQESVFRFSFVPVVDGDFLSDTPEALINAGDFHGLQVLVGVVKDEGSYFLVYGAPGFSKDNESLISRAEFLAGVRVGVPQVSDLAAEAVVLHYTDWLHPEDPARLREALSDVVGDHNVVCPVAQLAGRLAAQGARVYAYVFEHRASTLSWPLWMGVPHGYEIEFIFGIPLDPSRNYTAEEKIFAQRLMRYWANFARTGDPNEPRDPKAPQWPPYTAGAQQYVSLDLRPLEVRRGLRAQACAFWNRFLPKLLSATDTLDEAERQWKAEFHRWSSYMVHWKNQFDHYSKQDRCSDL

`C=CCc1ccc(O)c(-c2ccc(O)c(CC=C)c2)c1` [Honokiol] gave an IC50 [1] of 40 µM, an IC50 [2, 10] of 36.2 µM and an IC50 [3, 11] of 52.7 µM. For the same molecule, the IC50 [4] was > 100 µM, the IC50 [5, 12] was 57 µM and the Blood-brain barrier passage [6] was “capable of traversing the blood-brain barrier”.

In the case of `CCCCC/C=C/C(=O)CCc1ccc(O)c(OC)c1` [6-Shogaol], the IC50 [1, 13] is reported as > 100 µM, the IC50 [7] is reported as > 100 µM and the IC50 [2, 10] is reported as > 100 µM. For the same molecule, the IC50 [3, 11] was 11.3 µM and the IC50 [8] was > 100 µM.

For `CCCCCCC/C=C/C(=O)CCc1ccc(O)c(OC)c1` [8-Shogaol], the IC50 [1, 13] was > 100 µM, the IC50 [7] was 18.9 µM and the IC50 [2, 10] was 7.22 µM. The IC50 [3, 11] was 11.2 µM, the IC50 [8] was > 100 µM and the “Detection in the brain” value ([6]; after oral administration of ginger extract ref 34) was “not detected in the brain”.

Molecule `C=CCc1ccc(O)c(-c2cc(CC=C)ccc2O)c1` [Magnolol] has an IC50 [1] of 32 µM, an IC50 [2] of 43.1 µM and an IC50 [3] of 50.1 µM. For the same molecule, the IC50 [4] was > 100 µM, the IC50 [5, 12] was 69 µM and the Blood-brain barrier passage [6] was “capable of traversing the blood-brain barrier”.

For `CCCCCCCCC[C@H](O)CC(=O)CCc1ccc(O)c(OC)c1` [10-Gingerol], the IC50 [1, 13] was > 100 µM, the IC50 [7] was 25.9 µM and the IC50 [2, 10] was > 100 µM. For the same molecule, the IC50 [3, 11] was > 100 µM and the IC50 [8] was > 100 µM.

For `O=c1cc(-c2ccc(O)c(O)c2)oc2cc(O)cc(O)c12` [Luteolin], the IC50 [1, 13] was > 100 µM, the IC50 [2] was 48.9 µM and the IC50 [3] was > 100 µM. For the same molecule, the IC50 ([4]; inhibition of [35S]GTPγS binding induced by 3 nM human NPY, KAN-TS cells, read-out: IC50 value NPY Y2) was 8.39 µM, the IC50 ([5]; reported value from previous study (**) ref 24) was 32.5 µM and the Blood-brain barrier passage ([6]; in vivo) was “capable of crossing blood-brain barrier”.

For `O=C(/C=C/c1ccc(O)c(O)c1)O[C@H](Cc1ccc(O)c(O)c1)C(=O)O` [Rosmarinic acid], the IC50 [1] was > 100 µM, the IC50 [7] was > 100 µM and the IC50 [2, 10] was > 100 µM. For the same molecule, the IC50 [3, 11] was 0.54 µM, the IC50 [4] was > 100 µM and the Blood-brain barrier permeability [6] was “extremely low”.

In the case of “CRF: Stress hormone corticotropin-releasing factor (4136-s; Peptide Institute), injected ICV to induce delayed gastric emptying (SEEPPISLDLTFHLLREVLEMARAEQLAQQAHSNRKLMEII; ends and bridges not checked; UniProt P06850 154-194, looked up)”, the “Gastric emptying rate of solid test meal (2 hours) after CRF” value [9] is reported as “significantly decreased”.
